Target: T1, Sirt2_56–356 (Homo sapiens, UniProt Q8IXJ6)
T1 construct: human strep-tagged Sirt2_56–356 was expressed and purified; strep-tag; made in house
T1 sequence (Q8IXJ6 56-356): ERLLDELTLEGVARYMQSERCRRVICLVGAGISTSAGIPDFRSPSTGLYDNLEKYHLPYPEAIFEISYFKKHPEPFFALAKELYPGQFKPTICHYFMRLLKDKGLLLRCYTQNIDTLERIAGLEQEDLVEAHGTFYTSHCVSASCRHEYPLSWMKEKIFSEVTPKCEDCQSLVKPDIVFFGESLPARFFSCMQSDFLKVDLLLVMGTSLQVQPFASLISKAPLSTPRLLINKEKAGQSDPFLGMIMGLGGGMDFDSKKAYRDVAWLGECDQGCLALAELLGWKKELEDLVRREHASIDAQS
Test: Fluorescence thermal shift assay (DSF)
Type: binding
Conditions: 1000 µM compound, 6.0 μM Sirt2
Method: Fluorescence thermal shift assays were performed in white 96-well plates (Hard-Shell PCR Plates, BioRad, USA) with a total volume of 20 μL and a final DMSO concentration of 5% (v/v), following a published protocol. ,
Melting temperatures were determined using GraphPad Prism, following a published procedure.

SMILES | FTS-Assay Thermal shift at 1000 µM [°C]
CC(=O)Nc1ccc2c(c1)CCC2 [No. 4] | 1.1
CN(C(=O)c1cccs1)C1CC2CCC1C2 (stereo not shown) [No. 5] | 0.5
CC1Sc2ccccc2NC(=O)C1C (stereo not shown) [No. 6] | 1.5
COC(=O)c1sccc1-n1cccc1 [No. 7] | 0.8
C#Cc1ccc(-c2cnco2)cc1 [No. 8] | 0.9
N#CCOc1cc(Cl)cc(Cl)c1 [No. 10] | 0.7
c1ccc2c(CN3CCOCC3)csc2c1 [No. 14] | 1.3
Clc1ccc2ncccc2c1 [No. 15] | 0.7
CCOC(=O)Cc1ccc(OC)cc1 [No. 16] | 0.5
CCOC(=O)Cc1cccc(Cl)c1 [No. 17] | 0.9

The next lines start with the values.

FTS-Assay Thermal shift at 1000 µM [°C] | SMILES
1.3 | Cc1ccc(=O)n(Cc2ccc(Cl)cc2)n1 [No. 18]
0.9 | CCOC(=O)c1cccc(-c2nccs2)c1 [No. 21]
1.9 | CC(=O)c1c(O)cccc1OCCC(C)C [No. 22]

Same assay, conditions: 1000 µM compound, 6.0 μM Sirt2; read-out: FTS-Assay Thermal shift at 1000 µM

ΔTm at 1000 µM [°C] | SMILES
0.3 | NC(=S)c1ccc(OCC(F)(F)F)nc1 [compound 1]
0.5 | O=C(NCc1ccccn1)c1cccc(Cl)c1 [compound 3]

Same assay, conditions: 2000 µM compound, 6.0 μM Sirt2

SMILES | FTS-Assay Thermal shift at 2000 µM [°C]
CC(=O)Nc1ccc2c(c1)CCC2 [No. 4] | 0.1
CN(C(=O)c1cccs1)C1CC2CCC1C2 (stereo not shown) [No. 5] | 0.7
COC(=O)c1sccc1-n1cccc1 [No. 7] | 0.5
C#Cc1ccc(-c2cnco2)cc1 [No. 8] | 0.0
Nc1ccccc1-c1cccs1 [No. 12] | 0.0
c1ccc2c(CN3CCOCC3)csc2c1 [No. 14] | 0.7
Clc1ccc2ncccc2c1 [No. 15] | 0.2
CCOC(=O)Cc1ccc(OC)cc1 [No. 16] | 0.4
CCOC(=O)Cc1cccc(Cl)c1 [No. 17] | 0.9

The next lines start with the values.

FTS-Assay Thermal shift at 2000 µM [°C] | SMILES
0.1 | Cc1ccc(=O)n(Cc2ccc(Cl)cc2)n1 [No. 18]
0.0 | Nc1nc(-c2ccc(F)c(F)c2)cs1 [No. 20]
1.6 | CC(=O)c1c(O)cccc1OCCC(C)C [No. 22]

Same assay, conditions: 2000 µM compound, 6.0 μM Sirt2; read-out: FTS-Assay Thermal shift at 2000 µM

ΔTm at 2000 µM [°C] | SMILES
0.6 | NC(=S)c1ccc(OCC(F)(F)F)nc1 [compound 1]

System: Sirt2
Test: not given
Conditions: published Sirt2 inhibitors; no assay or reference printed at the place; cited from earlier work

SMILES | IC50 [µM]
COCCn1cc(COc2cccc(Cc3cnc(NC(=O)CSc4nc(C)cc(C)n4)s3)c2)nn1 [Mz242] | 0.12

System: not listed separately
Test: Precipitation observed in the FP assay IC50 determination
Type: physicochemical
Conditions: FP assay buffer, 5% DMSO
Description: Figure S3: (A) Superimposition of Sirt2 apo (salmon, PDB 9FDR) with Sirt2-Mz242 (Sirt2 = yellow-orange, Mz242 = yellow, PDB 8OWZ).4 All amino acids that are involved in the formation of the selectivity pocket align very well. However, Phe96 and Arg97 from the cofactor binding loop show a different orientation, resulting from the presence or absence of Mz242. (B) Superimposition of Sirt2-KT9 (Sirt2 = wheat, KT9 = firebrick, PDB 9FDX) with NAD+ (gray) from PDB 4RMG. In the presented KT9 orientation, the close distance of the amide C=O of KT9 and the ribose moiety of NAD+ (highlighted as black circle) would result in steric clashes that prevent simultaneous binding.
Figure S4: IC50 curves of compounds 1-3 in a previously reported Sirt2 binding assay based on fluorescence polarization.5 At concentrations exceeding 1000 µM, 1 started to precipitate, thus limiting the maximum inhibition to 70%. […]

concentration above which compound started to precipitate | SMILES
exceeding 1000 µM | NC(=S)c1ccc(OCC(F)(F)F)nc1 [compound 1]

Target: T1, Sirt2_56–356
Test: Fluorescence polarization assay (FPA), displacement of SirReal-TAMRA probe
Type: binding
Conditions: 200 nM Sirt2, 40 nM SirReal-TAMRA, 5% DMSO
Method: Blank controls contained 19 μL of assay buffer and 1 μL DMSO. Negative controls (P neg) used 1 μL Mz242 (20 μM final concentration), while positive controls (Ppos) replaced the inhibitor with 1 μL DMSO. […] Fluorescence intensities were measured with an EnVision plate reader (PerkinElmer, optical module – BODIPY TMR FP, excitation filter – FP 531 nm, emission filter 1 – FP p-pol 595 nm, emission filter 2 – FP s-pol 595 nm). Inhibition was calculated using the equation reported below (P I, P neg, and P pos are FP values of samples, […], respectively). I=100×(1−(PI−Pneg/Ppos−Pneg))%

IC50 [µM] | SMILES
286 ± 10 | NC(=S)c1ccc(OCC(F)(F)F)nc1 [compound 1]
565 ± 95 | O=C(NCc1ccccn1)c1cccc(Cl)c1 [compound 3]

Same assay, conditions: 125 µM compound

SMILES | FP-Assay Inhibition (%) at 125 µM [%]
CC(=O)Nc1ccc2c(c1)CCC2 [No. 4] | 32.8 ± 4.3
CN(C(=O)c1cccs1)C1CC2CCC1C2 (stereo not shown) [No. 5] | -7.4 ± 8.3
CC1Sc2ccccc2NC(=O)C1C (stereo not shown) [No. 6] | 20.2 ± 2.9
COC(=O)c1sccc1-n1cccc1 [No. 7] | 11.5 ± 5.5
C#Cc1ccc(-c2cnco2)cc1 [No. 8] | 19.1 ± 4.6
N#CCOc1cc(Cl)cc(Cl)c1 [No. 10] | 19.3 ± 10.5
Nc1ccccc1-c1cccs1 [No. 12] | 33.2 ± 10.3
CNCc1ccc(N2CCOCC2)s1 [No. 13] | 19.9 ± 3.1
c1ccc2c(CN3CCOCC3)csc2c1 [No. 14] | 24.3 ± 3.5
Clc1ccc2ncccc2c1 [No. 15] | 6.3 ± 7.4
CCOC(=O)Cc1ccc(OC)cc1 [No. 16] | 23.1 ± 3.9
CCOC(=O)Cc1cccc(Cl)c1 [No. 17] | 24.7 ± 4.0

More lines, now with the values ahead:

FP-Assay Inhibition (%) at 125 µM [%] | SMILES
11.3 ± 3.2 | Cc1ccc(=O)n(Cc2ccc(Cl)cc2)n1 [No. 18]
8.2 ± 4.9 | CC1(C)CC(=O)c2c(SCCO)sc(C#N)c2C1 [No. 19]
-0.9 ± 6.3 | Nc1nc(-c2ccc(F)c(F)c2)cs1 [No. 20]
41.8 ± 5.9 | CCOC(=O)c1cccc(-c2nccs2)c1 [No. 21]
57.6 ± 7.3 | CC(=O)c1c(O)cccc1OCCC(C)C [No. 22]

Same assay, conditions: 125 µM compound; read-out: FP-Assay Inhibition (%) at 125 µM

inhibition at 125 µM [%] | SMILES
26.5 ± 5.8 | NC(=S)c1ccc(OCC(F)(F)F)nc1 [compound 1]
15.1 ± 7.7 | O=C(NCc1ccccn1)c1cccc(Cl)c1 [compound 3]

Same assay, conditions: 500 µM compound

SMILES | FP-Assay Inhibition (%) at 500 µM [%]
CC(=O)Nc1ccc2c(c1)CCC2 [No. 4] | 61.1 ± 6.5
CN(C(=O)c1cccs1)C1CC2CCC1C2 (stereo not shown) [No. 5] | 10.3 ± 6.0
CC1Sc2ccccc2NC(=O)C1C (stereo not shown) [No. 6] | 59.9 ± 7.9
COC(=O)c1sccc1-n1cccc1 [No. 7] | 46.9 ± 4.3
C#Cc1ccc(-c2cnco2)cc1 [No. 8] | 61.2 ± 3.3
N#CCOc1cc(Cl)cc(Cl)c1 [No. 10] | 53.9 ± 8.2
Nc1ccccc1-c1cccs1 [No. 12] | 66.4 ± 3.2
CNCc1ccc(N2CCOCC2)s1 [No. 13] | 49.3 ± 4.1
c1ccc2c(CN3CCOCC3)csc2c1 [No. 14] | 42.5 ± 2.9
Clc1ccc2ncccc2c1 [No. 15] | 36.2 ± 6.5
CCOC(=O)Cc1ccc(OC)cc1 [No. 16] | 50.5 ± 5.4
CCOC(=O)Cc1cccc(Cl)c1 [No. 17] | 63.8 ± 2.4

Further lines, results first:

FP-Assay Inhibition (%) at 500 µM [%] | SMILES
41.9 ± 7.0 | Cc1ccc(=O)n(Cc2ccc(Cl)cc2)n1 [No. 18]
40.9 ± 5.6 | CC1(C)CC(=O)c2c(SCCO)sc(C#N)c2C1 [No. 19]
38.8 ± 4.6 | Nc1nc(-c2ccc(F)c(F)c2)cs1 [No. 20]
91.4 ± 2.5 | CCOC(=O)c1cccc(-c2nccs2)c1 [No. 21]
74.2 ± 4.2 | CC(=O)c1c(O)cccc1OCCC(C)C [No. 22]

Same assay, conditions: 500 µM compound; read-out: FP-Assay Inhibition (%) at 500 µM

inhibition at 500 µM [%] | SMILES
55.4 ± 4.3 | NC(=S)c1ccc(OCC(F)(F)F)nc1 [compound 1]
46.9 ± 9.3 | O=C(NCc1ccccn1)c1cccc(Cl)c1 [compound 3]

Same assay, conditions: 2000 µM compound

SMILES | FP-Assay Inhibition (%) at 2000 µM [%]
CC(=O)Nc1ccc2c(c1)CCC2 [No. 4] | 78.5 ± 7.5
CN(C(=O)c1cccs1)C1CC2CCC1C2 (stereo not shown) [No. 5] | 43.8 ± 10.1
CC1Sc2ccccc2NC(=O)C1C (stereo not shown) [No. 6] | 101.0 ± 4.7
COC(=O)c1sccc1-n1cccc1 [No. 7] | 76.2 ± 1.8
N#CCOc1cc(Cl)cc(Cl)c1 [No. 10] | 90.3 ± 14.7
Nc1ccccc1-c1cccs1 [No. 12] | 104.2 ± 3.2
CNCc1ccc(N2CCOCC2)s1 [No. 13] | 95.1 ± 3.5
c1ccc2c(CN3CCOCC3)csc2c1 [No. 14] | 91.9 ± 13.9
Clc1ccc2ncccc2c1 [No. 15] | 87.3 ± 6.8
CCOC(=O)Cc1cccc(Cl)c1 [No. 17] | 99.7 ± 4.6

The remaining lines, values ahead:

FP-Assay Inhibition (%) at 2000 µM [%] | SMILES
90.8 ± 2.8 | Cc1ccc(=O)n(Cc2ccc(Cl)cc2)n1 [No. 18]
91.5 ± 1.7 | CC1(C)CC(=O)c2c(SCCO)sc(C#N)c2C1 [No. 19]
91.3 ± 3.2 | Nc1nc(-c2ccc(F)c(F)c2)cs1 [No. 20]
97.0 ± 6.2 | CCOC(=O)c1cccc(-c2nccs2)c1 [No. 21]
56.5 ± 2.8 | CC(=O)c1c(O)cccc1OCCC(C)C [No. 22]

Same assay, conditions: 2000 µM compound; read-out: FP-Assay Inhibition (%) at 2000 µM

inhibition at 2000 µM [%] | SMILES
74.2 ± 3.1 | NC(=S)c1ccc(OCC(F)(F)F)nc1 [compound 1]
94.8 ± 3.4 | O=C(NCc1ccccn1)c1cccc(Cl)c1 [compound 3]
